Assay results from US12180226B2, “Spirotricycle RIPK1 inhibitors and methods of uses thereof” (Merck Sharp & Dohme LLC, priority 2021, dated 2024).
Structures can show the parent of a compound that is named as a salt.

biological target: RIPK1 (recombinant GST-RIPK1 kinase domain, residues 1-327) (Homo sapiens (Human), UniProt Q13546); assay: RIPK1-ADP-Glo Enzymatic Assay; type: biochemical; conditions: ADP-Glo; 25 nM GST-RIPK1, 300 μM ATP; assay lower limit ~25 nM; read-out: RIPK1 V0 Ec50
How it was run: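 Using dephosphorylated MBP (3 μM) as substrate and 300 μM ATP, 25 nM baculovirus-produced enzyme was reacted for 150 min after a 30-min compound pre-incubation. Luminescent ADP detection followed; lower confidence limit ~25 nM.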

Chain of RIPK1 (recombinant GST-RIPK1 kinase domain, residues 1-327) (Q13546 1-327): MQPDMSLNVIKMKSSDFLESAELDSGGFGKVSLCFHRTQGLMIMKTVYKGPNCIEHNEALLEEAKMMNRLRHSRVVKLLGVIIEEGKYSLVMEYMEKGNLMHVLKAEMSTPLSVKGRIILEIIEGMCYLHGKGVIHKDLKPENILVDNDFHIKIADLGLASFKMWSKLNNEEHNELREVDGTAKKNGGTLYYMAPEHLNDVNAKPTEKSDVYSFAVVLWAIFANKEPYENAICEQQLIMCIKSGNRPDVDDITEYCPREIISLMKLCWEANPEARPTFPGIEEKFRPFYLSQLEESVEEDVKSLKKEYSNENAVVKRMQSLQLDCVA

Structure (SMILES) | EC50 [nM]
O=C1N2[C@@H](CC[C@H]2c2ccccc2)OC12CCN(c1cccc3ncnn13)CC2 [Example 13.1, (5′S,7a′R)-1-([1,2,4]Triazolo[1,5-a]pyridin-5-yl)-5′-phenyltetrahydro-3′H-spiro[piperidine-4,2′-pyrrolo[2,1-b]oxazol]-3′-one, TFA] | 26.8
O=C1N2[C@@H](CC[C@H]2c2cc(F)cc(F)c2)OC12CCN(c1ncc(C3CC3)cn1)CC2 [Example 4.56, (5′S,7a′R)-1-(5-cyclopropylpyrimidin-2-yl)-5′-(3,5-difluorophenyl)tetrahydro-3′H-spiro[piperidine-4,2′-pyrrolo[2,1-b] [1,3]oxazol]-3′-one] | 565
O=C1N2[C@@H](CC[C@H]2c2ccccc2)OC12CCN(c1ccc(C(F)F)c3ncnn13)CC2 [Example 4.269, (5′S,7a′R)-1-[8-(difluoromethyl)[1,2,4]triazolo[1,5-a]pyridin-5-yl]-5′-phenyltetrahydro-3′H-spiro[piperidine-4,2′-pyrrolo[2,1-b] [1,3]oxazol]-3′-one] | < 25
O=C(c1ccsc1-c1ncccn1)N1CCC2(CC1)O[C@@H]1CC[C@@H](c3cc(F)cc(F)c3)N1C2=O [Example 6.36, (5′S,7a′R)-5′-(3,5-difluorophenyl)-1-[2-(pyrimidin-2-yl)thio-phene-3-carbonyl] tetrahydro-3′H-spiro [piperidine-4,2′-pyrrolo[2,1-b][1,3]oxazol]-3′-one] | 851
O=C1N2[C@@H](CC[C@H]2c2ccccc2F)OC12CN(c1cc(-c3ccccc3)no1)C2 [Example 11.35, (5′S,7a′R)-5′-(2-fluorophenyl)-1-(3-phenyl-1,2-oxazol-5-yl)tetrahydro-3′H-spiro[azetidine-3,2′-pyrrolo[2,1-b][1,3]oxazol]-3′-one] | 34.5
O=C(c1cscn1)N1CCC2(CC1)O[C@@H]1CC[C@@H](c3cc(F)cc(F)c3)N1C2=O [Example 5.44] | 33.1
Cc1ncc([C@@H]2CC[C@H]3OC4(CCN(c5ccnc6c(F)cnn56)CC4F)C(=O)N32)cc1F (stereo partly drawn) [Example 4.131, (5′S,7a′R)-3-fluoro-5′-(5-fluoro-6-methylpyridin-3-yl)-1-(3-fluoropyrazolo[1,5-a]pyrimidin-7-yl)tetrahydro-3′H-spiro[piperidine-4,2′-pyrrolo[2,1-b] [1,3]oxazol]-3′-one] | 30.6
Cc1ocnc1C(=O)N1CCC2(CC1)O[C@@H]1CC[C@@H](c3ccccc3)N1C2=O [Example 6.146, (5′S,7a′R)-1-(5-methyl-1,3-oxazole-4-carbonyl)-5′-phenyl-tetrahydro-3′H-spiro [piperidine-4,2′-pyrrolo[2,1-b][1,3]oxazol]-3′-one] | 34.9
O=C1N2[C@@H](CC[C@H]2c2ccccc2)OC12CCN(c1ccc(C3CC3)cn1)CC2 [Example 11.19, (5′S,7a′R)-1-(5-cyclopropylpyridin-2-yl)-5′-phenyltetrahydro-3′H-spiro[piperidine-4,2′-pyrrolo[2,1-b][1,3]oxazol]-3′-one] | 624
O=C1N2[C@@H](CC[C@H]2c2ccccc2)OC12CCN(c1ccc(-c3cscn3)c3ncnn13)CC2 [Example 21.19, (5′S,7a′R)-5′-phenyl-1-[8-(1,3-thiazol-4-yl)[l,2,4]triazolo[1,5-a]pyridin-5-yl]tetrahydro-3′H-spiro[piperidine-4,2′-pyrrolo[2,1-b][1,3]oxazol]-3′-one] | < 25
O=C(c1ccccc1)N1CCC2(CC1)CC1COC(c3cc(F)cc(F)c3)N1C2=O (stereo not shown) [Example 6.163, 1-(benzenecarbonyl)-3′-(3,5-difluoro-phenyl)dihydro-1′H,3′H,5′H-spiro [piperidine-4,6′-pyrrolo[1,2-c][1,3]oxazol]-5′-one] | 29.1
O=C(c1ccccc1)N1CCC2(CC1)O[C@@H]1CC[C@@H](c3cnccn3)N1C2=O [Example 17.1, (5′S,7a′R)-1-benzoyl-5′-(pyrazin-2-yl)tetrahydro-3′H-spiro[piperidine-4,2′-pyrrolo[2,1-b]oxazol]-3′-one, TFA] | 34.4
O=C(c1ccccc1)N1CCC2(CC1)O[C@@H]1CC[C@@H](c3cncc(F)c3)N1C2=O [Example 1.4, (5′S,7a′R)-1-(benzenecarbonyl)-5′-(5-fluoropyridin-3-yl)tetrahydro-3′H-spiro[piperidine-4,2′-pyrrolo[2,1-b] [1,3]oxazol]-3′-one] | 121
